Data on 7 molecules can be found in ChEMBL document CHEMBL1129652, “Substituted 1,2-dihydrophthalazines: potent, selective, and noncompetitive inhibitors of the AMPA receptor” (J Med Chem, 1996).

The structures appear in SMILES notation.

In general, inhibition refers to the relative decrease from the control value, in per cent. Read a low inhibition as a response near the control. Usually IC50 stands for the concentration that gives 50% inhibition.

The target in the first test is Glutamate receptor ionotropic, AMPA (Rattus norvegicus) (UniProt P19491+P19492+P19493+P19490). The test is described as follows: Compound at 10 uM of kainic acid. It counts as functional.
`CNC(=O)N1N=C(c2ccc(N)cc2)c2cc3c(cc2C1C)OCO3` (stereo not drawn) registered an inhibition of 13%.

The target in a further test is Glutamate receptor ionotropic, AMPA (Rattus norvegicus, UniProt P19490+P19491+P19492+P19493).
Description: Inhibitory activity against AMPA receptor currents in rat cortical cells stimulated with 50 uM kainic acid
For the molecule `CCCCNC(=O)N1N=C(c2ccc(N)cc2)c2cc3c(cc2C1C)OCO3` (stereo not drawn), the IC50 is 1.8 µM.
For the molecule `CNC(=O)N1N=C(c2ccc(N)cc2)c2cc3c(cc2CC1C)OCO3` (stereo not drawn) [GYKI-53655], the midpoint of inhibition, the IC50, lay at 1 µM.
Turning to `CCCNC(=O)N1N=C(c2ccc(N)cc2)c2cc3c(cc2C1C)OCO3` (stereo not drawn), half-maximal inhibition (IC50) was put at 2.8 µM.
On the same count and under the same terms, then `CCNC(=O)N1N=C(c2ccc(N)cc2)c2cc3c(cc2C1C)OCO3` (stereo not drawn), with 7.2 µM; and `CC1=NN=C(c2ccc(N)cc2)c2cc3c(cc2C1)OCO3` [GYKI-52466], with 10 µM; and `CNC(=O)N1N=C(c2ccc(N)cc2)c2cc3c(cc2C1C)OCO3` (stereo not drawn), with 23 µM.
On the same count and under the same terms, the result for `CC1c2cc3c(cc2C(c2ccc(N)cc2)=NN1C(=O)NC(C)(C)C)OCO3` (stereo not drawn) reads 5.4 µM.
